Source: patent publication US10329243B2, “Biphenyl derivative and uses thereof” (XI'AN LIBANG PHARMACEUTICAL CO., LTD, priority 2015, dated 2019)

Columns and labels:
Assay type in all cases: in vivo, SD rats
[1] = test system: MDA; test: MDA determination, cerebral ischemic reperfusion MCAO model
Procedure: (§1) Rats were intraperitoneally injected with 10% chloral hydrate 350 mg/kg after anesthesia and opened up at the center of the neck in accordance with the Zea Longa modified method. The right common carotid artery was separated, and the right external carotid artery branches was ligated. A small opening was made at the distal end of the external carotid artery, and a previously prepared thread was inserted through the common carotid artery and the external carotid artery bifurcation into the internal carotid artery, till the anterior end of the middle cerebral artery, with an immersed depth of 18 to 19 mm. The thread was then secured, and the wound was sutured layer by layer. After the operation, the rats were placed in a clean incubator to wake up. […] The sham operation group, the ischemic reperfusion group, and the Example groups were prepared strictly according to the requirements of the cerebral ischemic reperfusion model, while in the sham operation group the thread was put only into the external carotid artery. The animals were allowed to eat and drink freely after waking up. After 2 h, the thread was pulled out to achieve reperfusion. The sham operation group, the ischemic reperfusion group, and the Example groups were administered intravenously the aqueous solution of the biphenyl derivatives in PEG400 at 40 mg/kg (40 mg/kg means that 40 mg of the test compound per kg of the body weight of rats) 30 min before reperfusion and 12 h after reperfusion, respectively. The sham operation group and the ischemic reperfusion group were injected with the same amount of blank PEG400 aqueous solution at the same time point.
(§2) 24 hours after reperfusion, 8 rats in each group were sacrificed by decapitation, the brain was removed, rinsed with PBS (pH 7.4) at −20° i for 20 min, evenly sliced (with a thickness of 2 mm), stained in a 2% TTC solution at 37°% in the dark for 30 min, fixed in 10% formalin for 24 h, and photographs were taken to analyze the infarct volume. A mixture of femoral arterial and venous blood was drawn from another 8 rats in each group under anesthesia, placed in a low temperature centrifuge at 4° C., centrifuged at 3500 r/min for 20 min, and the supernatant was stored in a refrigerator at −20° C. ready for SOD and MDA detection. After the blood was drawn, a perfusion needle was insert through the apex to the ascending aorta, and saline at 4° C. was rapid infused until the effluent became clear, followed by 4% paraformaldehyde phosphate buffer perfusion for fixation; the brain was removed by craniotomy, and brain tissues 2 mm in front of and behind the optic chiasma were taken and fixed, dehydrated, rendered transparent, impregnated in wax, and embedded. Brain continuous coronary tissue pathological sections were consecutively cut for later use. The remaining 8 rats in each group were sacrificed, brains were removed, the ischemic brain hemispheres were immediately taken on an ice tray, and 10% brain tissue homogenate was prepared for the detection of IL-1β and TNF-α.
(§3) SOD and MDA were determined strictly in accordance with instructions of the kit.

[2] = test system: brain cell apoptosis; test: Apoptosis determination (TUNEL method), cerebral ischemic reperfusion MCAO model
Procedure: as §1, §2
(§4) The TUNEL method was used for determination. Brain tissue paraffin sections were dewaxed into water, washed with 3% H2O2 to eliminate endogenous peroxidase activity, and rinsed with distilled water for 2 min, repeated 3 times. A labelling solution was added for labelling at 37°t for 2 h, and a blocking solution was added for blocking at room temperature for 30 min. A biotinylated anti-digoxin antibody was added for a reaction at 37°a for 30 min, and SABC was added for a reaction at 37°a for 30 min. The sections were continuously rinsed with TBS for 5 min repeatedly for 4 times, stained with DAB, sufficiently washed, mild counterstained with Hematoxylin, gradient dehydrated with alcohol, made transparent with toluene, sealed and fixed. Five non-overlapping fields in semi-dark band were randomly selected from each section and inputted into the image analysis system.

[3] = test system: MDA; test: MDA determination, permanent cerebral ischemia model
Procedure: as §1, with “the permanent cerebral ischemia model” for “the ischemic reperfusion”, “up.” for “up. After 2 h, the thread was pulled out to achieve reperfusion.”, “before insertion of thread” for “before reperfusion”, “after embolism,” for “after reperfusion,”
as §2, with “the embolism,” for “reperfusion,”, “−20°i” for “−20° i”
as §3

[4] = test system: brain cell apoptosis; test: Apoptosis determination (TUNEL method), permanent cerebral ischemia model
Procedure: as §1, with “the permanent cerebral ischemia model” for “the ischemic reperfusion”, “up.” for “up. After 2 h, the thread was pulled out to achieve reperfusion.”, “before insertion of thread” for “before reperfusion”, “after embolism,” for “after reperfusion,”
as §2, with “the embolism,” for “reperfusion,”, “−20°i” for “−20° i”
as §4, with “system. The number of apoptotic cells was counted, and the average was designated the number of apoptotic cells.” for “system.”

[5] = ischemic reperfusion rat model, edaravone 3 mg/kg
[6] = permanent cerebral ischemia model rats, edaravone 3 mg/kg
[7] = ischemic reperfusion MCAO rats, 40 mg/kg intravenously 30 min before and 12 h after reperfusion, serum, 24 h after reperfusion
[8] = ischemic reperfusion MCAO rats, 40 mg/kg intravenously, brain sections 24 h after reperfusion, TUNEL, average of five fields
[9] = permanent cerebral ischemia model rats, 40 mg/kg intravenously, serum, 24 h after the embolism
[10] = permanent cerebral ischemia model rats, 40 mg/kg intravenously, brain sections 24 h after the embolism, TUNEL, average of five fields

| Molecule | MDA CONTENT [1, 7] [mmol/mL] | Number of apoptotic cells [2, 8] | MDA CONTENT [3, 9] [mmol/mL] | Number of apoptotic cells [4, 10] | other results |
| --- | --- | --- | --- | --- | --- |
| 3,3′,5,5′-tetraisopropylbiphenyl-4,4′-bis(oxymethylene phosphate) [Example 3 group] |  |  |  |  | MDA CONTENT ([1]; rat, in vivo, iv, 40 mg/kg): 5.36 ± 0.47 mmol/mL; Number of apoptotic cells ([2]; rat, in vivo, iv, 40 mg/kg): 25.14 ± 2.54; MDA CONTENT ([3]; rat, in vivo, iv, 40 mg/kg): 5.07 ± 0.77 mmol/mL; Number of apoptotic cells ([4]; rat, in vivo, iv, 40 mg/kg): 29.72 ± 3.43 |
| CC1=NN(c2ccccc2)C(=O)C1 [Edaravone injection, edaravone, reference compound] |  |  |  |  | MDA CONTENT [1, 5]: 6.17 ± 0.54 mmol/mL; Number of apoptotic cells [2, 5]: 28.6 ± 4.90; MDA CONTENT [3, 6]: 5.98 ± 0.44 mmol/mL; Number of apoptotic cells [4, 6]: 33.19 ± 3.81 |
| CC(=O)Oc1c(C(C)C)cc(-c2cc(C(C)C)c(O)c(C(C)C)c2)cc1C(C)C [Example 1 group, 4′-hydroxy-3,3′,5,5′-tetraisopropylbiphenyl-4-acetate] |  |  |  |  | MDA CONTENT ([1]; ischemic reperfusion MCAO rats, 40 mg/kg intravenously 30 min before and 12 h after reperfusion, serum, 24 h after reperfusion, 40 mg/kg): 4.74 ± 0.67 mmol/mL; MDA CONTENT ([3]; permanent cerebral ischemia model rats, 40 mg/kg intravenously, serum, 24 h after the embolism, 40 mg/kg): 4.49 ± 0.59 mmol/mL |
| CC(=O)Oc1c(C(C)C)cc(-c2cc(C(C)C)c(OC(C)=O)c(C(C)C)c2)cc1C(C)C [Example 2 group, 3,3′,5,5′-tetraisopropylbiphenyl-4′-diacetate] | 5.44 ± 0.49 | 24.65 ± 3.41 | 5.10 ± 0.82 | 23.27 ± 3.78 |  |
| CC(C)c1cc(-c2cc(C(C)C)c(OC(=O)CCC(=O)O)c(C(C)C)c2)cc(C(C)C)c1O [Example 5 group, [4-(4′-hydroxy-3,3′,5,5′-tetraisopropylbiphenyl)oxy]-4-carbonyl butyric acid] | 4.47 ± 0.34 | 20.56 ± 4.29 | 4.68 ± 0.42 | 23.48 ± 3.62 |  |
| CCCc1cc(-c2cc(CCC)c(O)c(C(C)C)c2)cc(C(C)C)c1O [Example 6 group, 4,4′-dihydroxy-3,3′-diisopropyl-5,5′-dipropylbiphenyl] | 4.26 ± 0.41 | 19.47 ± 5.02 | 4.31 ± 0.51 | 21.24 ± 5.30 |  |
| CCCc1cc(-c2cc(CCC)c(O)c(CCC)c2)cc(CCC)c1O [Example 7 group, 4,4′-dihydroxy-3,3′,5,5′-tetrapropylbiphenyl] | 4.97 ± 0.50 | 20.28 ± 3.76 | 4.42 ± 0.39 | 20.32 ± 4.19 |  |
| CC(C)c1cc(-c2cc(C(C)C)c(C(=O)O)c(C(C)C)c2)cc(C(C)C)c1O [Example 8 group, 4′-hydroxy-3,3′,5,5′-tetraisopropylbiphenyl-4-carboxylic acid] | 5.12 ± 0.47 | 24.81 ± 3.35 | 5.06 ± 0.28 | 27.74 ± 4.20 |  |
| CC(C)c1cc(-c2cc(C(C)C)c(Cl)c(C(C)C)c2)cc(C(C)C)c1O [Example 9 group, 4-chloro-4′-hydroxy-3,3′,5,5′-tetraisopropylbiphenyl] |  |  |  |  | MDA CONTENT ([1]; rat, in vivo, iv, 40 mg/kg): 5.61 ± 0.71 mmol/mL; Number of apoptotic cells ([2]; rat, in vivo, iv, 40 mg/kg): 25.47 ± 4.19; MDA CONTENT ([3]; rat, in vivo, iv, 40 mg/kg): 5.26 ± 0.49 mmol/mL; Number of apoptotic cells ([4]; rat, in vivo, iv, 40 mg/kg): 31.44 ± 5.19 |
| CC(C)c1cc(-c2cc(C(C)C)c(OC=O)c(C(C)C)c2)cc(C(C)C)c1O [Example 10 group] |  | 22.18 ± 5.22 |  | 23.67 ± 5.13 |  |
| CC(C)c1cc(-c2cc(C(C)C)c(OC(=O)C(N)C(C)C)c(C(C)C)c2)cc(C(C)C)c1O (stereo not shown) [Example 11 group, 4′-hydroxy-3,3′,5,5′-tetraisopropylbiphenyl-2-amino-3-methylbutyrate] | 4.92 ± 0.52 | 24.19 ± 4.29 |  | 26.31 ± 3.86 |  |
| CC(=O)OC(C)Oc1c(C(C)C)cc(-c2cc(C(C)C)c(O)c(C(C)C)c2)cc1C(C)C (stereo not shown) [Example 12 group, Ethyl 1-(4′-hydroxy-3,3′,5,5′-tetraisopropylbiphenyl-4-oxo)acetate] | 5.37 ± 0.55 | 26.27 ± 5.37 | 6.03 ± 0.36 | 32.45 ± 4.21 |  |
